# Data as given in patent publication US20210198277A1, “AMINE-SUBSTITUTED ARYL OR HETEROARYL COMPOUNDS” (Epizyme, Inc., priority 2016, published 2021).
# Target: T1, EHMT2 (Homo sapiens, UniProt Q96KQ7)
# T1 construct: host or cells: MDA-MB-231
# T1 sequence (Q96KQ7 1-1210): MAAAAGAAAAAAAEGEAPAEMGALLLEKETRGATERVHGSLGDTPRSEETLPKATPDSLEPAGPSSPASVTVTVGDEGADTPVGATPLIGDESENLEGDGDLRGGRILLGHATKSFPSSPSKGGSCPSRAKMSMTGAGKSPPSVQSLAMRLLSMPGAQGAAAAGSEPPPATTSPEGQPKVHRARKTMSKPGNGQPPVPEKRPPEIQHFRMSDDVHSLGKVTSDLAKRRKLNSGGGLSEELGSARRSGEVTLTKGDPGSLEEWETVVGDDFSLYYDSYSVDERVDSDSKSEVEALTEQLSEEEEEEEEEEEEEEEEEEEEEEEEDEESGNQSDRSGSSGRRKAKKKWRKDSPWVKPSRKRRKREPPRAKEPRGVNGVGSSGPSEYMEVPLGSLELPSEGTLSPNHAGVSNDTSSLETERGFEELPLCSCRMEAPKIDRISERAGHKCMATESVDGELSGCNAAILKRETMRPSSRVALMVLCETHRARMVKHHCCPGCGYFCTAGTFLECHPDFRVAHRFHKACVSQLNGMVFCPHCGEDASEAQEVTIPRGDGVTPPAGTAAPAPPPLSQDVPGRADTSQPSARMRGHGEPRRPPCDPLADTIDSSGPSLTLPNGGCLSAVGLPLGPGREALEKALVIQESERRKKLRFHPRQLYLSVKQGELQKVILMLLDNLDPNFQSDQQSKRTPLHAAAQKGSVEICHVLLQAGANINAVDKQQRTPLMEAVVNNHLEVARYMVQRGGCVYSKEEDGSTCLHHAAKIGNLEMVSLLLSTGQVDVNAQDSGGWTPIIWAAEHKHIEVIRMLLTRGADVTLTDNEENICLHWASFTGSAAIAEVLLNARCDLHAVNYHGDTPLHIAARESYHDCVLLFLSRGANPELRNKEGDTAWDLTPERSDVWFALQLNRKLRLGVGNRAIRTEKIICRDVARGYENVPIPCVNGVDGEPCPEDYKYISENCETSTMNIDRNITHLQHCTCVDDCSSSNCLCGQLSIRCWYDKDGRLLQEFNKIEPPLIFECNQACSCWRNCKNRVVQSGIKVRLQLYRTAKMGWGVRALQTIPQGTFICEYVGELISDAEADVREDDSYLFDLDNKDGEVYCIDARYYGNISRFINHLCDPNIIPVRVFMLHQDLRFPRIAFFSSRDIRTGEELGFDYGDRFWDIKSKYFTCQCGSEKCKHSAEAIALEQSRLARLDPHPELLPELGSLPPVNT
# Assay: MDA-MB-231 H3K9me2 in-cell Western assay (EHMT2 ICW)
# Assay type: cell-based
# Conditions: Table II; MDA-MB-231 H3K9me2 in-cell Western; read-out: EHMT2 ICW (IC50 μM)
# How it was run: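 IC50 values came from a variable-slope four-parameter fit on triplicate wells, using % inhibition from the 800/700 nm infrared signal ratio (anti-H3K9me2 versus DRAQ5 DNA stain). Before fixation and immunostaining, MDA-MB-231 cells, 3,000 per well, were exposed to compound for 48 h at 37 °C.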
row,SMILES,IC50
1,"COc1ccc(Nc2nccc(NCC3CCNCC3)n2)cc1OCCCN1CCOCC1 [Compound 16, N^2-(4-methoxy-3-(3-morpholinopropoxy)phenyl)-N^4-(piperidin-4-ylmethyl)pyrimidine-2,4-diamine]",> 10 µM
2,"COc1ccc(Nc2nccc(NCC3CCNCC3)n2)cc1CCNCC1CCCC1 [Compound 17, N^2-(3-(2-((cyclopentylmethyl)amino)ethyl)-4-methoxyphenyl)-N^4-(piperidin-4-ylmethyl)pyrimidine-2,4-diamine]",> 10 µM
3,"COc1ccc(Nc2nccc(NCC3CCN(C(C)=O)CC3)n2)cc1OCC1CCN(C)C1 (stereo not shown) [Compound 18, 1-(4-(((2-((4-methoxy-3-((1-methylpyrrolidin-3-yl)methoxy)phenyl)amino)pyrimidin-4-yl)amino)methyl)piperidin-1-yl)ethan-1-one]",1 to 10 µM
4,"COc1ccc(Nc2nc(C)cc(NCC3CCN(C(C)=O)CC3)n2)cc1OCCCN1CCCC1 [Compound 19, 1-(4-(((2-((4-methoxy-3-(3-(pyrrolidin-1-yl)propoxy)phenyl)amino)-6-methylpyrimidin-4-yl)amino)methyl)piperidin-1-yl)ethan-1-one]",0.1 to 1 µM
5,COc1ccc(Nc2nccc(NC(C)C)n2)cc1OCCCN1CCCC1 [Compound 20],0.1 to 1 µM
6,COc1ccc(Nc2nccc(NCc3ccccc3)n2)cc1OCCCN1CCCC1 [Compound 21],0.1 to 1 µM
7,COCCCNc1ccnc(Nc2ccc(OC)c(OCCCN3CCCC3)c2)n1 [Compound 22],0.1 to 1 µM
8,COc1ccc(Nc2nccc(NCc3ccccn3)n2)cc1OCCCN1CCCC1 [Compound 23],0.1 to 1 µM
9,COc1ccc(Nc2nccc(NCc3ccncc3)n2)cc1OCCCN1CCCC1 [Compound 24],0.1 to 1 µM
10,COc1ccc(Nc2nccc(NCc3cccnc3)n2)cc1OCCCN1CCCC1 [Compound 25],0.1 to 1 µM
11,COc1cccc(CNc2ccnc(Nc3ccc(OC)c(OCCCN4CCCC4)c3)n2)c1 [Compound 26],0.1 to 1 µM
12,COCCNc1ccnc(Nc2ccc(OC)c(OCCCN3CCCC3)c2)n1 [Compound 27],0.1 to 1 µM
13,COc1ccc(CNc2ccnc(Nc3ccc(OC)c(OCCCN4CCCC4)c3)n2)cc1 [Compound 28],0.1 to 1 µM
14,COc1ccc(Nc2nccc(NCC3CCN(C(C)C)CC3)n2)cc1OCCCN1CCCC1 [Compound 29],0.1 to 1 µM
15,COc1ccc(Nc2nccc(NCc3cnn(C)c3)n2)cc1OCCCN1CCCC1 [Compound 30],0.1 to 1 µM
16,COc1ccc(Nc2nccc(NCc3nc4ccccc4[nH]3)n2)cc1OCCCN1CCCC1 [Compound 31],0.1 to 1 µM
17,COc1ccc(Nc2nccc(NCC3CCN(C)CC3)n2)cc1OCCCN1CCCC1 [Compound 32],0.1 to 1 µM
18,COc1ccc(Nc2nccc(NCC3CCN(c4ccccc4)CC3)n2)cc1OCCCN1CCCC1 [Compound 33],0.1 to 1 µM
19,COc1ccc(Nc2nccc(NCC3CCCC3)n2)cc1OCCCN1CCCC1 [Compound 34],0.1 to 1 µM
20,COc1ccc(Nc2cccc(NC3CCC3)n2)cc1OCCCN1CCCC1 [Compound 35],0.1 to 1 µM
21,COc1ccccc1CNc1ccnc(Nc2ccc(OC)c(OCCCN3CCCC3)c2)n1 [Compound 36],0.1 to 1 µM

row,SMILES,IC50
1,COc1ccc(Nc2nccc(NCCc3cccnc3)n2)cc1OCCCN1CCCC1 [Compound 37],0.1 to 1 µM
2,COc1ccc(Nc2nccc(NCCNC(C)=O)n2)cc1OCCCN1CCCC1 [Compound 38],0.1 to 1 µM
3,COc1ccc(Nc2nccc(NCCc3ccncc3)n2)cc1OCCCN1CCCC1 [Compound 39],0.1 to 1 µM
4,COc1ccc(Nc2nccc(NCCOc3ccccc3)n2)cc1OCCCN1CCCC1 [Compound 40],1 to 10 µM
5,CNC(=O)CNc1ccnc(Nc2ccc(OC)c(OCCCN3CCCC3)c2)n1 [Compound 41],1 to 10 µM
6,COc1ccc(Nc2nccc(NCC(C)(C)O)n2)cc1OCCCN1CCCC1 [Compound 42],1 to 10 µM
7,COc1ccc(Nc2nccc(NCCS(=O)(=O)N(C)C)n2)cc1OCCCN1CCCC1 [Compound 43],1 to 10 µM
8,COc1ccc(Nc2nccc(NCCCN(C)C(C)=O)n2)cc1OCCCN1CCCC1 [Compound 44],1 to 10 µM
9,COc1ccc(Nc2nccc(NCC3(O)CCCCC3)n2)cc1OCCCN1CCCC1 [Compound 45],1 to 10 µM
10,COc1ccc(Nc2nccc(NCc3cc[nH]n3)n2)cc1OCCCN1CCCC1 [Compound 46],1 to 10 µM
11,"COc1ccc(Nc2nccc(NCC3CCN(C(C)=O)CC3)n2)cc1OCCCN1CCCC1 [Compound 47, 1-(4-(((2-((4-methoxy-3-(3-(pyrrolidin-1-yl)propoxy)phenyl)amino)pyrimidin-4-yl)amino)methyl)piperidin-1-yl)ethan-1-one]",1 to 10 µM
12,COc1ccc(Nc2nccc(NCC3CCN(C(C)=O)CC3)n2)cc1COCCN1CCCC1 [Compound 48],1 to 10 µM
13,COc1ccc(Nc2nccc(NCC3(O)CCOCC3)n2)cc1OCCCN1CCCC1 [Compound 49],1 to 10 µM
14,COc1ccc(Nc2nccc(NC3CCCCC3)n2)cc1OCCCN1CCCC1 [Compound 50],1 to 10 µM
15,"CNc1cc(C)nc(Nc2ccc(OC)c(OCCCN3CCCC3)c2)n1 [Compound 205, N^2-(4-methoxy-3-(3-(pyrrolidin-1-yl)propoxy)phenyl)-N^4,6-dimethylpyrimidine-2,4-diamine]",< 0.1 µM
16,CNc1cc(Nc2ccc(OC)c(OCCCN3CCCC3)c2)ccn1 [Compound 206],> 10 µM
17,"CNc1ccnc(Nc2cccc(OCCCN3CCCC3)c2)n1 [Compound 207, N^4-methyl-N^2-(3-(3-(pyrrolidin-1-yl)propoxy)phenyl)pyrimidine-2,4-diamine]",1 to 10 µM
18,CNc1nc(C)cc(Nc2ccc(OC)c(OCCCN3CCCC3)c2)n1 [Compound 208],1 to 10 µM
19,"CNc1ccnc(Nc2ccc(OC)c(OCCCN3CCCC3)c2)c1 [Compound 209, N^2-(4-methoxy-3-(3-(pyrrolidin-1-yl)propoxy)phenyl)-N^4-methylpyridine-2,4-diamine]",1 to 10 µM
20,CNc1ccnc(Nc2ccc(OC)c(OCCCN3CCOCC3)c2)n1 [Compound 210],1 to 10 µM
21,COc1ccc(Nc2nccc(-n3nc(C)cc3C)n2)cc1OCCCN1CCCC1 [Compound 214],> 10 µM

row,SMILES,IC50
1,CNCc1cnc(Nc2ccc(OC)c(OCCCN3CCCC3)c2)nc1 [Compound 215],> 10 µM
2,COc1ccc(Nc2ccnc(NCC3CCN(C(C)=O)CC3)n2)cc1OCCCN1CCCC1 [Compound 216],> 10 µM
3,COc1ccc(Nc2ccc3cnn(C)c3c2)cc1OCCCN1CCCC1 [Compound 217],> 10 µM
4,COc1ccc(Nc2ccc3ncn(C)c3n2)cc1OCCCN1CCCC1 [Compound 218],> 10 µM
5,COc1ccc(Nc2ncc3ncn(C)c3n2)cc1OCCCN1CCCC1 [Compound 219],> 10 µM
6,COc1ccc(Nc2cccc3ncnn23)cc1OCCCN1CCCC1 [Compound 220],> 10 µM
7,COc1ccc(Nc2ccc3nn(C)cc3c2)cc1OCCCN1CCCC1 [Compound 221],> 10 µM
8,COc1ccc(Nc2cccc3cn(C)nc23)cc1OCCCN1CCCC1 [Compound 222],> 10 µM
9,COc1ccc(Nc2ccc3ncc(C)n3n2)cc1OCCCN1CCCC1 [Compound 223],> 10 µM
10,COc1ccc(Nc2nccc(-c3cnn(C)c3)n2)cc1OCCCN1CCCC1 [Compound 224],> 10 µM
11,COc1ccc(Nc2nccc(Nc3cccc(F)c3)n2)cc1OCCCN1CCCC1 [Compound 225],1 to 10 µM
12,COc1ccc(Nc2nccc(NCC3CCOCC3)n2)cc1NCCCN1CCCC1 [Compound 226],1 to 10 µM
13,COc1ccc(OCCCN2CCCC2)cc1Nc1nccc(NCC2CCOCC2)n1 [Compound 227],> 10 µM
14,COc1ccc(NCCCN2CCCC2)cc1Nc1nccc(NCC2CCOCC2)n1 [Compound 228],> 10 µM
15,CNc1ccnc(Nc2ccc(OC)c(OCCCN3CC[C@@H](F)C3)c2)n1 [Compound 229],1 to 10 µM
16,CNc1ccnc(Nc2ccc(OC)c(OCCCN3CC(F)C3)c2)n1 [Compound 230],1 to 10 µM
17,CNc1nccc(Nc2ccc(OC)c(OCCCN3CCCC3)c2)n1 [Compound 231],0.1 to 1 µM
18,CNc1cc(C)nc(Nc2ccc(F)c(OCCCN3CCCC3)c2)n1 [Compound 232],> 10 µM
19,CNc1nc(Nc2ccc(OC)c(OCCCN3CCCC3)c2)ncc1C#N [Compound 233],> 10 µM
